The text below walks through data of patent US10428151B2, “Treatment of hematologic malignancies with an anti-CXCR4 antibody” (BRISTOL-MYERS SQUIBB COMPANY, priority 2011, dated 2019).

In experiment [1] the test system is Ramos cells. Nature of the experiment: Ramos systemic tumor cell model, survival. The experiment is classed as in vivo, mouse. Conditions: second experiment. The procedure: In this example, the ability of an anti-CXCR4 human antibody to increase survival time of mice was examined using a Ramos systemic tumor cell model. In this assay, 1×10^6 Ramos cells/mouse were injected intravenously (IV) into each mouse on Day 0. The mice then received an intraperitoneal (IP) injection of a first dose of antibody on Day 1 (i.e., one day after IV administration of tumor cells) and received four more IP doses of antibody, on days 5, 8, 15 and 22 (mice treated with the positive control antibody were treated only on day 1). […] Dose response studies had previously found 15 mg/kg to be an effective dose of anti-CD19 (data not shown). Percent survival was measured at regular intervals between Day 0 and Day 50 post dosing (hind leg paralysis was used as the endpoint of the experiment). […] The median numbers of days of survival for the mice treated with either vehicle or the isotype control were 23 and 25.5 days, respectively, whereas the median number of days of survival of the mice treated with one dose of the anti-CD19 positive control was 39 days.
The median number of days of survival for the mice treated with the vehicle or the isotype controls were 23-24 days, whereas the median number of days of survival of the mice treated with one dose of the anti-CD19 positive control was 39 days.

Experiment [2] concerns parental R1610 cells. Nature of the experiment: Apoptosis of parental R1610 cells, Annexin V-FITC/PI. Format: cell-based, hamster. The note with it: 24 hours. The procedure: MDX-1338 or isotype control were added to CXCR4-transfected cells (A) or R1610 parental cells (B) and stained with Annexin V-FITC and PI. The percentages of cells that were positive for Annexin V only or doubly positive for both Annexin V and PI double positive are illustrated.
The percent of cells that are positive for Annexin V only or both Annexin V and PI double positive was determined.

For experiment [3], the system named is NIH-H226 lung carcinoma cells. In words: NIH-H226 subcutaneous xenograft. Format: in vivo, mouse. The protocol: Additional subcutaneous xenograft tumor models were tested for the ability of anti-CXCR4 antibodies to inhibit tumor growth, in experiments similar to those described above and in Example 9. […] Although the tumor cells in vivo were stainable by the mAb by immunohistochemistry, it is unclear at what stage of their tumor growth CXCR4 began to be expressed.

Experiment [4] has as its system MM cells. The note with it: compared to vehicle-treated mice; Roccaro et al., 2012; cited from earlier work.

As for “BMS-936564: fully human anti-CXCR4 monoclonal antibody; VH SEQ ID NO: 25, VL SEQ ID NO: 29”, the “efficacy in prolonging mouse survival” value in experiment [1] (15 mg/kg) is recorded as “highly efficacious in prolonging mouse survival”. In addition, the “percent of mice survived at end of experiment” value in experiment [1] (five doses 15 mg/kg, 120 days after implantation) was determined as 100%. Besides, in experiment [2], the “apoptosis of parental R1610 cells” value is “did not exhibit apoptosis”. Moreover, the tumor growth inhibition entry in experiment [3] is “no tumor growth inhibition”. Further, the “MM cell dissemination to distant bone marrow niches” value in experiment [4] is “less MM cell dissemination”.
